Assay results reported in ChEMBL document CHEMBL3046025, “Fungitoxic Properties of N-Phenylformamidoximes in Control of Benzimidazole-Resistant Isolates of Fungi” (1992).

Columns and labels:
Assay type in all cases: functional
[1] = test system: Botrytis cinerea; test: Antifungal activity against Benzimidalzole-sensitive Botryotinia fuckeliana isolate Bc-9 infected kidney bean leaves at 12.5 ppm 24 hr post-infection measured after 3 days
[2] = test system: Cercospora beticola; test: Antifungal activity against Benzimidalzole-sensitive Cercospora beticola isolate 18-1 infected in sugar beet seedlings at 3.1 ppm 24 hr-post inoculation
[3] = test system: Cercospora beticola; test: Antifungal activity against Benzimidalzole-sensitive Cercospora beticola isolate 18-1 infected in sugar beet seedlings at 12.5 ppm 24 hr-post inoculation
[4] = test system: Cercospora beticola; test: Antifungal activity against Benzimidalzole-sensitive Cercospora beticola isolate 18-1 infected in sugar beet seedlings at 50 ppm 24 hr-post inoculation
[5] = test system: Cercospora beticola; test: Antifungal activity against Benzimidalzole-sensitive Cercospora beticola isolate 18-1 infected in sugar beet seedlings at 200 ppm 24 hr-post inoculation
[6] = test system: Botrytis cinerea; test: Antifungal activity against Benzimidalzole-sensitive Botryotinia fuckeliana isolate Bc-9 infected kidney bean leaves at 200 ppm applied as soil drench 3 days prior to inoculation
[7] = test system: Botrytis cinerea; test: Antifungal activity against Benzimidalzole-sensitive Botryotinia fuckeliana isolate Bc-9 infected kidney bean leaves at 200 ppm treated as foliar application followed by incubation for 7 days in green house condition
[8] = test system: Botrytis cinerea; test: Antifungal activity against Benzimidalzole-sensitive Botryotinia fuckeliana isolate Bc-9 infected compound-treated kidney bean leaves at 12.5 ppm after 4 days
[9] = test system: Botrytis cinerea; test: Antifungal activity against Benzimidalzole-sensitive Botryotinia fuckeliana isolate Bc-9 infected compound-treated kidney bean leaves at 50 ppm after 4 days
[10] = test system: Botrytis cinerea; test: Antifungal activity against Benzimidalzole-sensitive Botryotinia fuckeliana isolate Bc-9 infected compound-treated kidney bean leaves at 200 ppm after 4 days
[11] = test system: Botrytis cinerea; test: Antifungal activity against Benzimidalzole-resistant Botryotinia fuckeliana isolate Bc-44 infected compound-treated kidney bean leaves at 12.5 ppm after 4 days
[12] = test system: Botrytis cinerea; test: Antifungal activity against Benzimidalzole-resistant Botryotinia fuckeliana isolate Bc-44 infected compound-treated kidney bean leaves at 50 ppm after 4 days
[13] = test system: Botrytis cinerea; test: Antifungal activity against Benzimidalzole-resistant Botryotinia fuckeliana isolate Bc-44 infected compound-treated kidney bean leaves at 200 ppm after 4 days
[14] = test system: Botrytis cinerea; test: Antifungal activity against Benzimidalzole-resistant Botryotinia fuckeliana isolate Bc-20 infected compound-treated kidney bean leaves at 12.5 ppm after 4 days
[15] = test system: Botrytis cinerea; test: Antifungal activity against Benzimidalzole-resistant Botryotinia fuckeliana isolate Bc-20 infected compound-treated kidney bean leaves at 200 ppm after 4 days
[16] = test system: Botrytis cinerea; test: Antifungal activity against Benzimidalzole-resistant Botryotinia fuckeliana isolate Bc-20 infected compound-treated kidney bean leaves at 50 ppm after 4 days
[17] = test system: Cercospora beticola; test: Antifungal activity against Benzimidalzole-sensitive Cercospora beticola isolate 18-1 infected in sugar beet seedlings at 200 ppm applied as soil drench 3 days prior to inoculation
[18] = test system: Cercospora beticola; test: Antifungal activity against Benzimidalzole-sensitive Cercospora beticola isolate 18-1 infected in sugar beet seedlings at 12.5 ppm treated as foliar application 7 days prior to inoculation
[19] = test system: Cercospora beticola; test: Antifungal activity against Benzimidalzole-sensitive Cercospora beticola isolate 18-1 infected in sugar beet seedlings at 50 ppm treated as foliar application 7 days prior to inoculation
[20] = test system: Cercospora beticola; test: Antifungal activity against Benzimidalzole-sensitive Cercospora beticola isolate 18-1 infected in sugar beet seedlings at 200 ppm treated as foliar application 7 days prior to inoculation
[21] = test system: Cercospora beticola; test: Antifungal activity against Benzimidalzole-sensitive Cercospora beticola isolate 18-1 infected in compound-treated sugar beet seedlings at 200 ppm after 12 days
[22] = test system: Cercospora beticola; test: Antifungal activity against Benzimidalzole-sensitive Cercospora beticola isolate 18-1 infected in compound-treated sugar beet seedlings at 50 ppm after 12 days
[23] = test system: Cercospora beticola; test: Antifungal activity against Benzimidalzole-sensitive Cercospora beticola isolate 18-1 infected in compound-treated sugar beet seedlings at 12.5 ppm after 12 days
[24] = test system: Botrytis cinerea; test: Antifungal activity against Benzimidalzole-sensitive Botryotinia fuckeliana isolate Bc-9 infected kidney bean leaves at 50 ppm 24 hr post-infection measured after 3 days
[25] = test system: Botrytis cinerea; test: Antifungal activity against Benzimidalzole-sensitive Botryotinia fuckeliana isolate Bc-9 infected kidney bean leaves at 200 ppm 24 hr post-infection measured after 3 days
[26] = test system: Cercospora beticola; test: Antifungal activity against Benzimidalzole-resistant Cercospora beticola isolate 18-2 infected in compound-treated sugar beet seedlings at 50 ppm after 12 days
[27] = test system: Cercospora beticola; test: Antifungal activity against Benzimidalzole-resistant Cercospora beticola isolate 18-2 infected in compound-treated sugar beet seedlings at 200 ppm after 12 days
[28] = test system: Cercospora beticola; test: Antifungal activity against Benzimidalzole-resistant Cercospora beticola isolate Cb-19 infected in compound-treated sugar beet seedlings at 50 ppm after 12 days
[29] = test system: Cercospora beticola; test: Antifungal activity against Benzimidalzole-resistant Cercospora beticola isolate Cb-19 infected in compound-treated sugar beet seedlings at 200 ppm after 12 days
[30] = test system: Cercospora beticola; test: Antifungal activity against Benzimidalzole-resistant Cercospora beticola isolate 20-2 infected in compound-treated sugar beet seedlings at 3.1 ppm after 12 days
[31] = test system: Cercospora beticola; test: Antifungal activity against Benzimidalzole-resistant Cercospora beticola isolate 20-2 infected in compound-treated sugar beet seedlings at 12.5 ppm after 12 days
[32] = test system: Cercospora beticola; test: Antifungal activity against Benzimidalzole-resistant Cercospora beticola isolate 20-2 infected in compound-treated sugar beet seedlings at 50 ppm after 12 days
[33] = test system: Cercospora beticola; test: Antifungal activity against Benzimidalzole-resistant Cercospora beticola isolate 20-2 infected in compound-treated sugar beet seedlings at 200 ppm after 12 days
[34] = test system: Cercospora beticola; test: Antifungal activity against Benzimidalzole-sensitive Cercospora beticola isolate 18-1 infected in compound-treated sugar beet seedlings at 3.1 ppm after 12 days
[35] = test system: Cercospora beticola; test: Antifungal activity against Benzimidalzole-resistant Cercospora beticola isolate Cb-19 infected in sugar beet seedlings at 12.5 ppm treated as foliar application 7 days prior to inoculation
[36] = test system: Cercospora beticola; test: Antifungal activity against Benzimidalzole-resistant Cercospora beticola isolate Cb-19 infected in sugar beet seedlings at 50 ppm treated as foliar application 7 days prior to inoculation
[37] = test system: Cercospora beticola; test: Antifungal activity against Benzimidalzole-resistant Cercospora beticola isolate Cb-19 infected in sugar beet seedlings at 200 ppm treated as foliar application 7 days prior to inoculation
[38] = test system: Cercospora beticola; test: Antifungal activity against Benzimidalzole-resistant Cercospora beticola isolate Cb-19 infected in sugar beet seedlings at 200 ppm 24 hr-post inoculation
[39] = test system: Cercospora beticola; test: Antifungal activity against Benzimidalzole-resistant Cercospora beticola isolate Cb-19 infected in sugar beet seedlings at 200 ppm applied as soil drench 3 days prior to inoculation
[40] = test system: Cercospora beticola; test: Antifungal activity against Benzimidalzole-resistant Cercospora beticola isolate 18-2 infected in compound-treated sugar beet seedlings at 3.1 ppm after 12 days
[41] = test system: Cercospora beticola; test: Antifungal activity against Benzimidalzole-resistant Cercospora beticola isolate 18-2 infected in compound-treated sugar beet seedlings at 12.5 ppm after 12 days
[42] = test system: Cercospora beticola; test: Antifungal activity against Benzimidalzole-resistant Cercospora beticola isolate Cb-19 infected in compound-treated sugar beet seedlings at 3.1 ppm after 12 days
[43] = test system: Cercospora beticola; test: Antifungal activity against Benzimidalzole-resistant Cercospora beticola isolate Cb-19 infected in compound-treated sugar beet seedlings at 12.5 ppm after 12 days
[44] = test system: Botrytis cinerea; test: Antifungal activity against Benzimidalzole-resistant Botryotinia fuckeliana isolate Bc-44 infected kidney bean leaves at 12.5 ppm treated as foliar application followed by incubation for 7 days in green house condition
[45] = test system: Botrytis cinerea; test: Antifungal activity against Benzimidalzole-resistant Botryotinia fuckeliana isolate Bc-44 infected kidney bean leaves at 50 ppm treated as foliar application followed by incubation for 7 days in green house condition
[46] = test system: Botrytis cinerea; test: Antifungal activity against Benzimidalzole-resistant Botryotinia fuckeliana isolate Bc-44 infected kidney bean leaves at 200 ppm treated as foliar application followed by incubation for 7 days in green house condition
[47] = test system: Botrytis cinerea; test: Antifungal activity against Benzimidalzole-resistant Botryotinia fuckeliana isolate Bc-44 infected kidney bean leaves at 50 ppm applied as soil drench 3 days prior to inoculation
[48] = test system: Botrytis cinerea; test: Antifungal activity against Benzimidalzole-resistant Botryotinia fuckeliana isolate Bc-44 infected kidney bean leaves at 200 ppm applied as soil drench 3 days prior to inoculation
[49] = test system: Botrytis cinerea; test: Antifungal activity against Benzimidalzole-resistant Botryotinia fuckeliana isolate Bc-20 infected compound-treated kidney bean leaves at 3.1 ppm after 4 days
[50] = test system: Botrytis cinerea; test: Antifungal activity against Benzimidalzole-sensitive Botryotinia fuckeliana isolate Bc-9 infected compound-treated kidney bean leaves at 3.1 ppm after 4 days
[51] = test system: Botrytis cinerea; test: Antifungal activity against Benzimidalzole-resistant Botryotinia fuckeliana isolate Bc-44 infected kidney bean leaves at 3.1 ppm 24 hr post-infection measured after 3 days
[52] = test system: Botrytis cinerea; test: Antifungal activity against Benzimidalzole-resistant Botryotinia fuckeliana isolate Bc-44 infected kidney bean leaves at 12.5 ppm 24 hr post-infection measured after 3 days
[53] = test system: Botrytis cinerea; test: Antifungal activity against Benzimidalzole-resistant Botryotinia fuckeliana isolate Bc-44 infected kidney bean leaves at 50 ppm 24 hr post-infection measured after 3 days
[54] = test system: Botrytis cinerea; test: Antifungal activity against Benzimidalzole-resistant Botryotinia fuckeliana isolate Bc-44 infected kidney bean leaves at 200 ppm 24 hr post-infection measured after 3 days
[55] = test system: Botrytis cinerea; test: Antifungal activity against Benzimidalzole-resistant Botryotinia fuckeliana isolate Bc-44 infected compound-treated kidney bean leaves at 3.1 ppm after 4 days

Molecule | Activity [8] [%] | Activity [9] [%] | Activity [10] [%] | Activity [11] [%] | Activity [12] [%] | Activity [13] [%] | Activity [14] [%] | Activity [15] [%] | Activity [16] [%] | Activity [21] [%] | Activity [22] [%] | Activity [23] [%] | Activity [26] [%] | Activity [27] [%] | Activity [28] [%] | Activity [29] [%] | Activity [30] [%] | Activity [31] [%] | Activity [32] [%] | Activity [33] [%] | further results
COC(=O)NC(=S)Nc1ccccc1NC(=S)NC(=O)OC [THIOPHANATE METHYL] | 35 | 84 | 96 | 0 | 0 | 5 | 0 | 17 | 7 | 100 | 100 | 88 | 0 | 0 | 0 | 0 | 0 | 12 | 56 | 78 | Activity [1]: 73%; Activity [2]: 13%; Activity [3]: 75%; Activity [4]: 100%; Activity [5]: 100%; Activity [6]: 51%; Activity [7]: 93%; Activity [17]: 64%; Activity [18]: 25%; Activity [19]: 84%; Activity [20]: 88%; Activity [24]: 84%; Activity [25]: 84%; Activity [34]: 68%
TRIPHENYLSTANNANOL | – | – | – | – | – | – | – | – | – | 100 | 100 | 88 | 100 | 100 | 100 | 100 | 69 | 94 | 100 | 100 | Activity [35]: 65%; Activity [36]: 90%; Activity [37]: 100%; Activity [38]: 0%; Activity [39]: 0%; Activity [40]: 56%; Activity [41]: 80%; Activity [42]: 60%; Activity [43]: 78%; Activity [34]: 75%
C=CC1(C)OC(=O)N(c2cc(Cl)cc(Cl)c2)C1=O (stereo unspecified) [VINCLOZOLIN] | 90 | 100 | 100 | 77 | 100 | 100 | 82 | 100 | 100 | – | – | – | – | – | – | – | – | – | – | – | Activity [44]: 45%; Activity [45]: 75%; Activity [46]: 91%; Activity [47]: 56%; Activity [48]: 93%; Activity [49]: 31%; Activity [50]: 39%; Activity [51]: 70%; Activity [52]: 97%; Activity [53]: 100%; Activity [54]: 100%; Activity [55]: 21%
